This assay relates to isolated rat aortic strips. Nature of the assay: Contraction of Rat Aortic Strips (inhibition of calcium-induced contracture, calcium channel blocking activity). In kind it is cell-based. Conditions: for reduction in responsiveness to / contracture at 2 mM Ca++ (in words): 3×10^-7 M, 15 minute exposure; for inhibition at 0.3 µM: Rattus norvegicus, 3×10^-7 M compound, 15 minutes prior to and during calcium curve, 2 mM Ca++, 45 mM potassium, as compared to the control, read-out: % Inhibition (effect on the 2mM Ca++ contracture). Here is the method:
The calcium channel blocking activity of compounds of formula I was determined by measuring the effect of compounds of formula I on isolated rat aortic strips. Contraction of Rat Aortic Strips Aortas were excised from rats, placed in Krebs-Henseleit solution, modified so as to be calcium free, with a depolarized level of potassium (45 mM), and 0.02 mM EDTA. The aorta was then helically cut into a strip. This strip was then divided into four equal segments which were hung in isolated tissue chambers, attached to the appropriate tranducers and subjected to 500 mg basal tension. After a period of stabilization under these conditions, calcium was introduced into the bath and the tissues contracted in a concentration dependent manner. When no calcium is available in the bathing media, and the potential dependent calcium channels are opened by the high potassium level, contractility is dependent on the level of calcium introduced into the bath. By adding increments of calcium into the bath, a reproducible concentration-dependent contracture can be obtained. […] The number for untreated controls was derived by measuring contracture for two runs where calcium alone was added. […] The inhibition in contractile response at 2mMCa++was measured as a per cent inhibition as compared to the control.

This is an account of results in patent US4992432A, “3-phenyl-thiazepinones as calcium regulating agents” (Hoffmann-La Roche Inc., priority 1990, dated 1991).

Counter-ions that a name gives are not always drawn.

With `COc1ccc([C@@H]2SC=C(c3ccccc3)N(CCN(C)C)C(=O)[C@@H]2OC(C)=O)cc1` [Compound A, (+)-cis-6-(Acetyloxy)-6,7-dihydro-7-(4-methoxyphenyl) 4-[2-(dimethylamino)ethyl]-3-phenyl-1,4-thiazepin-5-(4H)-one hydrochloride], the “reduction in responsiveness to / contracture at 2 mM Ca++ (in words)” value is recorded as “inhibited almost two thirds of the contracture” and the inhibition (commonly the relative decrease from the control value, in per cent) at 0.3 µM is -63%.

On to `COc1ccc([C@H]2SC=C(c3ccccc3)N(CCN(C)C)C(=O)[C@H]2OC(C)=O)cc1` [F, (-)-cis-6-(Acetyloxy)-6,7-dihydro-7-(4-methoxyphenyl) -4-[2-(dimethylamino)ethyl]-3-phenyl-1,4-thiazepin-5 (4H)-one [S-(R,* R,*)]-2,3-dihydroxybutanedioic acid salt], for which the inhibition at 0.3 µM is -9.1%.

Take `COc1ccc([C@H]2SC=C(c3ccccc3)N(CCN(C)C)C(=O)[C@H]2O)cc1` (racemic) [D, cis-rac.-6,7-Dihydro-6-hydroxy-7-(4-methoxyphenyl)-4[2-(dimethylamino)ethyl]-3-phenyl-1,4-thiazepin-5(4H)-one hydrochloride]: the inhibition at 0.3 µM is -16.5%.

Take `COc1ccc([C@@H]2SC=C(c3ccccc3)N(CCN(C)C)C(=O)[C@H]2O)cc1` (racemic) [H, trans-rac.-6,7-Dihydro-6-hydroxy-7-(4-methoxyphenyl) -4-[2-(dimethylamino)ethyl]-3-phenyl-1,4-thiazepin-5 (4H)-one (E)-2-butenedioate]: the inhibition at 0.3 µM was -5.6%.

Consider `COc1ccc([C@@H]2Sc3ccccc3N(CCN(C)C)C(=O)[C@@H]2OC(C)=O)cc1` [Diltiazem, reference compound], for which the “reduction in responsiveness to / contracture at 2 mM Ca++ (in words)” value was “marked reduction in responsiveness” and the inhibition at 0.3 µM is -77%.

In the case of `COc1ccc([C@@H]2SC=C(c3ccccc3)N(CCN(C)C)C(=O)[C@@H]2O)cc1` [E], the inhibition at 0.3 µM was -13%.

Take `COc1ccc([C@@H]2SC=C(c3ccccc3)N(CCN(C)C)C(=O)[C@@H]2OC(C)=O)cc1` (relative stereo) [Compound B, cis-rac.6-(Acetyloxy)-6,7-dihydro-7-(4-methoxyphenyl) -4-[2-(dimethylamino)ethyl]-3-phenyl-1,4-thiazepin-5(4H)-one hydrochloride]: the inhibition at 0.3 µM was -26.8%.

On to `COc1ccc([C@@H]2SC=C(c3ccccc3)N(CCN(C)C)C(=O)[C@H]2OC(C)=O)cc1` (racemic) [G, trans-rac.-6-(Acetyloxy)-6,7-dihydro-7-(4-methoxy-phenyl)-4-[2-(dimethylamino)ethyl]-3-phenyl-1,4-thiazepin-5(4H)-one hydrochloride], for which the inhibition at 0.3 µM is -8.4%.

In the case of `COc1ccc([C@@H]2SC=C(c3ccccc3)N(CCN(C)C)C(=O)[C@@H]2OC)cc1` (relative stereo) [C, cis-rac.6,7-Dihydro-6-methoxy-7-(4-methoxyphenyl)-4[2-(dimethylamino)ethyl-3-phenyl-1,4-thiazepin-5(4H)-one hydrochloride], the inhibition at 0.3 µM was -22.1%.
